Measurements published in EPA's ToxRefDB 2.

How the values were obtained:
[1] = tested on: rat; settings: Subchronic oral toxicity in rodents, sprague dawley, Feed, dose end: 13 week, group: systemic
[2] = tested on: dog; settings: Chronic toxicity, beagle, Oral, Gavage/Intubation, dose end: 52 week, group: systemic
[3] = tested on: rat; settings: Chronic toxicity; sprague dawley; Oral; Gavage/Intubation; dose end: 6 month; group: systemic; systemic / clinical chemistry / creatinine / creatinine
[4] = tested on: mouse; settings: Subchronic oral toxicity in rodents, cd1, Feed, dose end: 14 week, group: systemic
[5] = tested on: dog; settings: Subchronic oral toxicity in nonrodent, beagle, Gavage/Intubation, dose end: 6 month, group: systemic
[6] = tested on: rat; settings: Subchronic oral toxicity in rodents, sprague dawley, Feed, dose end: 90 day, group: systemic, systemic / pathology microscopic / kidney / basophilia + systemic / pathology microscopic / kidney / dilatation + systemic / pathology …
[7] = tested on: rat; settings: Combined chronic toxicity/carcinogenicity, sprague dawley, Oral, Feed, dose end: 2 year, group: systemic
[8] = tested on: rat; settings: Prenatal developmental toxicity study, sprague dawley, Oral, Gavage/Intubation, dose end: 15 GD
[9] = tested on: dog; settings: Subchronic oral toxicity in nonrodent, beagle, Feed, dose end: 13 week, group: systemic, systemic / in life observation / body weight / body weight + systemic / in life observation / body weight / body weight gain + systemic / …
[10] = tested on: mouse; settings: Carcinogenicity, b6c3f1, Oral, Feed, dose end: 2 year, group: systemic
[11] = tested on: rat; settings: Carcinogenicity, fischer, Oral, Feed, dose end: 2 year, group: systemic, systemic / in life observation / clinical signs / urine
[12] = tested on: rat; settings: Subchronic oral toxicity in rodents, fischer, Feed, dose end: 13 week, group: systemic
[13] = tested on: mouse; settings: Subchronic oral toxicity in rodents, b6c3f1, Feed, dose end: 13 week, group: systemic
[14] = tested on: mouse; settings: Multigenerational reproductive toxicity study, cd1, Oral, Feed, dose end: 2 generation
[15] = systemic / clinical chemistry / creatinine / creatinine
[16] = systemic / clinical chemistry / creatinine / creatinine + systemic / hematology / reticulocyte / reticulocyte + systemic / organ weight / …
[17] = systemic / organ weight / heart / absolute
[18] = systemic / organ weight / heart / absolute + systemic / clinical chemistry / alkaline phosphatase (alp/alk) / alkaline phosphatase (alp/alk…
[19] = systemic / clinical chemistry / creatinine / creatinine + systemic / hematology / hematocrit (hct) / hematocrit (hct) + systemic / …
[20] = systemic / organ weight / adrenal gland / relative to body weight + systemic / organ weight / heart / absolute + systemic / clinical …
[21] = systemic / pathology microscopic / kidney / dilatation + systemic / pathology microscopic / kidney / fibrosis + systemic / clinical …
[22] = group: developmental, developmental / developmental malformation / bone / incomplete ossification + developmental / developmental malformation / interparietal / …
[23] = group: maternal, systemic / in life observation / food consumption / food consumption + systemic / pathology gross / kidney / enlarged
[24] = systemic / in life observation / body weight / body weight + systemic / pathology microscopic / epididymis / atypia cellular + systemic / …
[25] = systemic / in life observation / clinical signs / urine, discoloration + systemic / pathology microscopic / adrenal gland / hyperplasia + …
[26] = discoloration + systemic / pathology microscopic / kidney / adenoma + systemic / …
[27] = systemic / in life observation / clinical signs / urine, discoloration
[28] = group: offspring, systemic / in life observation / body weight / offspring (pup) weight
[29] = group: parental, systemic / in life observation / food consumption / food consumption
[30] = group: reproductive, reproductive / offspring survival early / live fetuses / live fetuses + reproductive / reproductive performance / fertility / fertility

CC(=O)c1ccc2c(c1)[C@H](NC(=O)c1ccc(F)cc1)[C@@H](O)C(C)(C)O2 [Carabersat]
LEL [1, 15]: 20 mg/kg/day | NEL [1, 15]: < 20 mg/kg/day | LOAEL [1, 16]: > 2000 mg/kg/day | NOAEL [1, 16]: ≥ 2000 mg/kg/day | LEL [2, 17]: 20 mg/kg/day | NEL [2, 17]: < 20 mg/kg/day | LOAEL [2, 18]: > 1000 mg/kg/day | NOAEL [2, 18]: ≥ 1000 mg/kg/day | LEL [3]: 200 mg/kg/day | LOAEL [3]: > 2000 mg/kg/day | NEL [3]: 20 mg/kg/day | NOAEL [3]: ≥ 2000 mg/kg/day | LEL [4, 15]: 200 mg/kg/day | LOAEL [4, 19]: > 2000 mg/kg/day | NEL [4, 19]: 20 mg/kg/day | NOAEL [4, 19]: ≥ 2000 mg/kg/day | LEL ([5]; systemic / organ weight / adrenal gland / relative to body weight + systemic / clinical chemistry / alkaline phosphatase (alp/alk) / …): 200 mg/kg/day | NEL ([5]; systemic / organ weight / adrenal gland / relative to body weight + systemic / organ weight / heart / absolute): 20 mg/kg/day | LOAEL [5, 20]: > 1000 mg/kg/day | NOAEL [5, 20]: ≥ 1000 mg/kg/day

CCNc1nc(NC(C)C)[nH]c(=O)n1 [2-Hydroxyatrazine]
LEL [6]: 18.9 mg/kg/day | LOAEL [6]: 18.9 mg/kg/day | NEL [6]: 6.3 mg/kg/day | NOAEL [6]: 6.3 mg/kg/day | LOAEL ([7]; systemic / pathology microscopic / kidney / dilatation + systemic / pathology microscopic / kidney / fibrosis): 7.75 mg/kg/day | NEL [7, 21]: 0.962 mg/kg/day | NOAEL [7, 21]: 0.962 mg/kg/day | LEL ([7]; systemic / pathology microscopic / kidney / dilatation + systemic / pathology microscopic / kidney / fibrosis + systemic / pathology gross…): 7.75 mg/kg/day | LEL [8, 22]: 125 mg/kg/day | LOAEL [8, 22]: 125 mg/kg/day | NEL [8, 22]: 25 mg/kg/day | NOAEL [8, 22]: 25 mg/kg/day | LOAEL ([8]; group: maternal, systemic / in life observation / food consumption / food consumption): 125 mg/kg/day | LEL [8, 23]: 125 mg/kg/day | NEL [8, 23]: 25 mg/kg/day | NOAEL [8, 23]: 25 mg/kg/day | LEL [9]: 59.6 mg/kg/day | LOAEL [9]: 59.6 mg/kg/day | NEL [9]: 5.8 mg/kg/day | NOAEL [9]: 5.8 mg/kg/day

O=C1CN(/N=C/c2ccc([N+](=O)[O-])o2)C(=O)N1 [Nitrofurantoin]
LOAEL [10, 24]: 570 mg/kg/day | NOAEL [10, 24]: 300 mg/kg/day | LEL [10, 25]: 280 mg/kg/day | NEL [10, 25]: < 280 mg/kg/day | LEL ([11]; discoloration): 30 mg/kg/day | NEL ([11]; discoloration): < 30 mg/kg/day | LOAEL [11, 26]: > 60 mg/kg/day | NOAEL [11, 26]: ≥ 60 mg/kg/day | NOAEL ([12]; systemic / in life observation / body weight / body weight + systemic / in life observation / clinical signs / urine, discoloration + …): 65 mg/kg/day | LOAEL ([12]; systemic / in life observation / body weight / body weight + systemic / pathology microscopic / testes / degeneration): 125 mg/kg/day | LEL [12, 27]: 30 mg/kg/day | NEL [12, 27]: < 30 mg/kg/day | NOAEL ([13]; systemic / in life observation / body weight / body weight + systemic / pathology microscopic / ovary / necrosis + systemic / in life …): 375 mg/kg/day | LOAEL ([13]; systemic / in life observation / body weight / body weight + systemic / pathology microscopic / ovary / necrosis + systemic / pathology …): 750 mg/kg/day | LEL ([13]; systemic / pathology microscopic / testes / aspermatogenesis + systemic / pathology microscopic / testes / degeneration): 195 mg/kg/day | NEL ([13]; systemic / pathology microscopic / testes / aspermatogenesis + systemic / pathology microscopic / testes / degeneration + systemic / in life…): 90 mg/kg/day | LEL [14, 28]: 99.2 mg/kg/day | LOAEL [14, 28]: > 213 mg/kg/day | NEL [14, 28]: 43.8 mg/kg/day | NOAEL [14, 28]: ≥ 213 mg/kg/day | LEL [14, 29]: 164 mg/kg/day | LOAEL [14, 29]: > 164 mg/kg/day | NEL [14, 29]: 88.7 mg/kg/day | NOAEL [14, 29]: ≥ 164 mg/kg/day | LEL [14, 30]: 213 mg/kg/day | LOAEL [14, 30]: > 213 mg/kg/day | NEL [14, 30]: 99.2 mg/kg/day | NOAEL [14, 30]: ≥ 213 mg/kg/day
